Measurements published in patent US20020166132A1, “System for regulating in vivo the expression of a transgene by conditional inhibition” (priority 2000, published 2002).

Columns and labels:
[1] = tested on: SeAP reporter gene (plasmid pRDA02); assay: SeAP expression in C2C12 cells, hPPARγ2 inducible system; assay type: cell-based, murine; conditions: ratios of columns 3 and 4; 5 and 6; 7 and 8, FIG. 24; BRL49653 at 10^-7 M final
Protocol: FIG. 24: Measurement of the expression of SeAP 5 days after transfection in C2C12 cells with the following plasmids, with and without the chemical inducer BRL49653 at 10^-7 M final:
The cells used were NIHT3T3 murine fibroblasts (ATCC: CRL-1658). These cells were seeded 24 h before transfection, in 6- or 24-well plates, at a density of 5×10^4 cells/well in 1 ml of medium, or of 2.5×10^5 cells/well in 2 ml. The culture medium used was DMEM™ medium (Life Technologies Inc.) supplemented with 10% of calf serum. The cell cultures were incubated in an incubator at 37° C. in a humid atmosphere and under a partial CO2 pressure of 5%. The transfections were carried out approximately 24 h after seeding, when 50 to 80% confluence was obtained. C2C12 cells were murine myoblast cells (ATCC: CRL1772) and were cultured on a DMEM™ medium (Life Technologies Inc.) supplemented with 10% of fetal calf serum to which L-glutamine, 2 mM final, and antibiotics, 50 units final of penicillin and 50 μg/ml of streptomycin, were added.

SeAP reporter gene = assay: Circulating SeAP after intramuscular injection and electrotransfer of plasmids into tibialis cranialis muscle of SCID mice; assay type: in vivo
Protocol: The 6-week-old SCID mice were first anesthetized with a Ketamine/Xylazine mixture (250 μl/mouse). The various plasmids in solution in 150 mM NaCl were then injected intramuscularly into the tibialis cranialis muscle of the mice. […] The amount of circulating SeAP was regularly monitored by taking blood samples and assaying the phosphatase activity using the Phospha-Light kit (Tropix).

CN(CCOc1ccc(CC2SC(=O)NC2=O)cc1)c1ccccn1 (stereo not drawn) [BRL fibrate, rosiglitazone]
inducibility of the expression of SeAP in the presence of the antisense transcript [1]: a certain inducibility

CN1CCN(c2ccc3[nH]c(-c4ccc5[nH]c(-c6ccc(O)cc6)nc5c4)nc3c2)CC1
SeAP activity with aptamer ligand (SeAP reporter gene; pXL3010+pSeAPaptazyme, 400 mg/l via the drinking water, Example 14): restored to a significant level

NC[C@@H]1O[C@H](O[C@H]2[C@@H](O)[C@H](O[C@@H]3[C@@H](O)[C@H](N)C[C@H](N)[C@H]3O[C@H]3O[C@H](CN)[C@@H](O)[C@H](O)[C@H]3N)O[C@@H]2CO)[C@H](N)[C@@H](O)[C@@H]1O [neomycin B]
expression of SeAP with aptamer ligand (SeAP reporter gene; pXL3010+pSeAPaptamerAS, IP injection approximately 500 μg/mouse, Example 13): can be restored
